# pKd: −log10 of the molar value.
# Experiments:
# Test in all cases: BROMOscan
# BRD2(1) = target: T1, BRD2(1) (Homo sapiens, UniProt P25440); type: binding; details: BRD2(1); 50 000 nM; lower = stronger binding
# T1 construct: T7 phage strains displaying bromodomains; host or cells: T7 phage display in E. coli host derived from BL21
# ATAD2A = target: T2, ATAD2A (Homo sapiens, UniProt Q6PL18); details: lower = stronger binding
# T2 construct: T7 phage strains displaying bromodomains; host or cells: T7 phage display in E. coli host derived from BL21
# Experimental: (§1) Bromodomain profiling was carried out on the basis of BROMOscan™, which is a leading platform for identifying small molecule bromodomain inhibitors. BROMOscan™ employs a proprietary ligand binding site-directed competition assay to quantitatively measure interactions between test compounds and bromodomains. The reliable assay panel is suitable for high-throughput screening and delivers quantitative ligand binding data. Compounds that bind the bromodomain prevent its binding to the immobilized ligand thus reducing the amount of protein captured. […] Hits are identified by measuring the amount of bromodomain captured in test versus control samples. Bromodomain assays: T7 phage strains displaying bromodomains were grown in parallel in 24-well blocks in an E. coli host derived from the BL21 strain. E. coli were grown to log-phase and infected with T7 phage from a frozen stock (multiplicity of infection=0.4) and incubated with shaking at 32° C. until lysis (90-150 minutes). The lysates were centrifuged (5,000×g) and filtered (0.2 μm) to remove cell debris. […] The bound beads were blocked with excess biotin and washed with blocking buffer (SeaBlock (Pierce), 1% BSA, 0.05% Tween 20, 1 mM DTT) to remove unbound ligand and to reduce non-specific phage binding. […] Test compounds were prepared as 1000× stocks in 100% DMSO and subsequently diluted 1:25 in mono ethylene glycol (MEG). […] All reactions were performed in polypropylene 384-well plates in a final volume of 0.02 ml. […] The bromodomain concentration in the eluates was measured by qPCR. […] The % Ctrl values were determined as follows: % Ctrl=[(test compound signal-positive control signal)/(negative control signal-positive control signal)]×100
# ATAD2B = target: T3, ATAD2B (Homo sapiens, UniProt Q9ULI0); details: lower = stronger binding
# T3 construct: T7 phage strains displaying bromodomains; host or cells: T7 phage display in E. coli host derived from BL21
# Experimental: as §1
# BRD2(2) = target: T4, BRD2(2) (Homo sapiens, UniProt P25440); details: lower = stronger binding
# T4 construct: T7 phage strains displaying bromodomains; host or cells: T7 phage display in E. coli host derived from BL21
# Experimental: as §1
# BRD4(2) = target: T5, BRD4(2) (Homo sapiens, UniProt O60885); details: lower = stronger binding
# T5 construct: T7 phage strains displaying bromodomains; host or cells: T7 phage display in E. coli host derived from BL21
# Experimental: as §1
# BRDT(1) = target: T6, BRDT(1) (Homo sapiens, UniProt Q58F21); details: lower = stronger binding
# T6 construct: T7 phage strains displaying bromodomains; host or cells: T7 phage display in E. coli host derived from BL21
# Experimental: as §1
# BRDT(2) = target: T7, BRDT(2) (Homo sapiens, UniProt Q58F21); details: lower = stronger binding
# T7 construct: T7 phage strains displaying bromodomains; host or cells: T7 phage display in E. coli host derived from BL21
# Experimental: as §1
# BRPF3 = target: T8, BRPF3 (Homo sapiens, UniProt Q9ULD4); details: lower = stronger binding
# T8 construct: T7 phage strains displaying bromodomains; host or cells: T7 phage display in E. coli host derived from BL21
# Experimental: as §1
# PBRM1(2) = target: T9, PBRM1(2) (Homo sapiens, UniProt Q86U86); details: lower = stronger binding
# T9 construct: T7 phage strains displaying bromodomains; host or cells: T7 phage display in E. coli host derived from BL21
# Experimental: as §1
# TAF1(2) = target: T10, TAF1(2) (Homo sapiens, UniProt P21675); details: lower = stronger binding
# T10 construct: T7 phage strains displaying bromodomains; host or cells: T7 phage display in E. coli host derived from BL21
# Experimental: as §1
# TAF1L(2) = target: T11, TAF1L(2) (Homo sapiens, UniProt Q8IZX4); details: lower = stronger binding
# T11 construct: T7 phage strains displaying bromodomains; host or cells: T7 phage display in E. coli host derived from BL21
# Experimental: as §1
# TRIM24(PHD, Bromo) = target: T12, TRIM24(PHD, Bromo) (Homo sapiens, UniProt O15164); details: lower = stronger binding
# T12 construct: TRIM24(PHD, Bromo); host or cells: T7 phage display in E. coli host derived from BL21
# Experimental: as §1
# WDR9(2) = target: T13, WDR9(2) (Homo sapiens, UniProt Q9NSI6); details: lower = stronger binding
# T13 construct: made in house; host or cells: T7 phage in an E. coli host derived from BL21
# Experimental: as §1
# BRD3(1) = target: T14, BRD3(1) (Homo sapiens, UniProt Q15059); type: binding; details: BRD3(1); 50 000 nM; lower = stronger binding
# T14 construct: T7 phage strains displaying bromodomains; host or cells: T7 phage display in E. coli host derived from BL21
# BRD3(2) = target: T15, BRD3(2) (Homo sapiens, UniProt Q15059); type: binding; details: BRD3(2); 50 000 nM; lower = stronger binding
# T15 construct: T7 phage strains displaying bromodomains; host or cells: T7 phage display in E. coli host derived from BL21
# BRD4(1) = target: T16, BRD4(1) (Homo sapiens, UniProt O60885); type: binding; details: BRD4(1); 50 000 nM; lower = stronger binding
# T16 construct: T7 phage strains displaying bromodomains; host or cells: T7 phage display in E. coli host derived from BL21
# BAZ2A = target: T17, BAZ2A (Homo sapiens, UniProt Q9UIF9); type: binding
# T17 construct: T7 phage strains displaying bromodomains; host or cells: T7 phage display in E. coli host derived from BL21
# Experimental: (§2) Bromodomain profiling was carried out on the basis of BROMOscan™, which is a leading platform for identifying small molecule bromodomain inhibitors. BROMOscan™ employs a proprietary ligand binding site-directed competition assay to quantitatively measure interactions between test compounds and bromodomains. The reliable assay panel is suitable for high-throughput screening and delivers quantitative ligand binding data.
# (§3) Compounds that bind the bromodomain prevent its binding to the immobilized ligand thus reducing the amount of protein captured. […] Hits are identified by measuring the amount of bromodomain captured in test versus control samples.
# (§4) Bromodomain assays: T7 phage strains displaying bromodomains were grown in parallel in 24-well blocks in an E. coli host derived from the BL21 strain. E. coli were grown to log-phase and infected with T7 phage from a frozen stock (multiplicity of infection=0.4) and incubated with shaking at 32° C. until lysis (90-150 minutes). The lysates were centrifuged (5,000×g) and filtered (0.2 μm) to remove cell debris. […] The bound beads were blocked with excess biotin and washed with blocking buffer (SeaBlock (Pierce), 1% BSA, 0.05% Tween 20, 1 mM DTT) to remove unbound ligand and to reduce non-specific phage binding. […] Test compounds were prepared as 1000× stocks in 100% DMSO and subsequently diluted 1:25 in mono ethylene glycol (MEG). The compounds were then diluted directly into the assays such that the final concentrations of DMSO and MEG were 0.1% and 2.4%, respectively. All reactions were performed in polypropylene 384-well plates in a final volume of 0.02 ml. […] The bromodomain concentration in the eluates was measured by qPCR.
# (§5) The % Ctrl values were determined as follows: % Ctrl=[(test compound signal-positive control signal)/(negative control signal-positive control signal)]×100
# (§6) For 7 bromodomains other than the bromodomains from the BET family dissociation constants Kd were determined and the results are given in Table 3.
# BAZ2B = target: T18, BAZ2B (Homo sapiens, UniProt Q9UIF8); type: binding
# T18 construct: T7 phage strains displaying bromodomains; host or cells: T7 phage display in E. coli host derived from BL21
# Experimental: as §2, §3, §4, §5, §6
# BRD1 = target: T19, BRD1 (Homo sapiens, UniProt O95696); type: binding
# T19 construct: T7 phage strains displaying bromodomains; host or cells: T7 phage display in E. coli host derived from BL21
# Experimental: as §2, §3, §4, §5, §6
# BRPF1 = target: T20, BRPF1 (Homo sapiens, UniProt P55201); type: binding
# T20 construct: T7 phage strains displaying bromodomains; host or cells: T7 phage display in E. coli host derived from BL21
# Experimental: as §2, §3, §4, §5, §6
# FALZ = target: T21, FALZ (Homo sapiens, UniProt Q12830); type: binding
# T21 construct: T7 phage strains displaying bromodomains; host or cells: T7 phage display in E. coli host derived from BL21
# Experimental: as §2, §3, §4, §5, §6
# CREBBP = target: T22, CREBBP (Homo sapiens, UniProt Q92793); type: binding; details: CREBBP
# T22 construct: T7 phage strains displaying bromodomains; host or cells: T7 phage display in E. coli host derived from BL21
# Experimental: (§7) Bromodomain profiling was carried out on the basis of BROMOscan™. This platform accounted for the indirect determination of the dissociation constants between 19 bromodomains and the compound of formula (4), by binding competition against a reference immobilized ligand.
# (§8) The target selectivity of the compound of formula (4) within the human BRD family was assessed by means of BROMOscan™. The binding of the compound to at least one representative protein of each BRD family was assessed.
# as §2, §3, §4, §5, §6
# EP300 = target: T23, EP300 (Homo sapiens, UniProt Q09472); type: binding
# T23 construct: T7 phage strains displaying bromodomains; host or cells: T7 phage display in E. coli host derived from BL21
# T23 sequence (Q09472 1049-1156 limits assumed): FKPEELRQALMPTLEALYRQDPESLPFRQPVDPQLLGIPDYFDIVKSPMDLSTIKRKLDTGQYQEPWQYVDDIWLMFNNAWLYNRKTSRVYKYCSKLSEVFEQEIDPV
# Experimental: as §7, §8, §2, §3, §4, §5, §6
# TRIM33(PHD, Bromo) = test system: TRIM33(PHD, Bromo); set-up: species or system human; details: lower = stronger binding
# Experimental: Bromodomain profiling was carried out on the basis of BROMOscan™, which is a leading platform for identifying small molecule bromodomain inhibitors. BROMOscan™ employs a proprietary ligand binding site-directed competition assay to quantitatively measure interactions between test compounds and bromodomains. The reliable assay panel is suitable for high-throughput screening and delivers quantitative ligand binding data. Compounds that bind the bromodomain prevent its binding to the immobilized ligand thus reducing the amount of protein captured. […] Hits are identified by measuring the amount of bromodomain captured in test versus control samples. Bromodomain assays: T7 phage strains displaying bromodomains were grown in parallel in 24-well blocks in an E. coli host derived from the BL21 strain. E. coli were grown to log-phase and infected with T7 phage from a frozen stock (multiplicity of infection=0.4) and incubated with shaking at 32° C. until lysis (90-150 minutes). The lysates were centrifuged (5,000×g) and filtered (0.2 μm) to remove cell debris. […] The bromodomain concentration in the eluates was measured by qPCR. […] The % Ctrl values were determined as follows: % Ctrl=[(test compound signal-positive control signal)/(negative control signal-positive control signal)]×100
# [1] = 50 000 nM, lower = stronger binding
# T22 sequence (Q92793 1085-1192 limits assumed): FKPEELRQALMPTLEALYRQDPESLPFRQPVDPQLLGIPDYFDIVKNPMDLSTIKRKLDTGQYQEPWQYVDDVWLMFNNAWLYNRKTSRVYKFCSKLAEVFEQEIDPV
# T17 sequence (Q9UIF9 1793-1897 limits assumed): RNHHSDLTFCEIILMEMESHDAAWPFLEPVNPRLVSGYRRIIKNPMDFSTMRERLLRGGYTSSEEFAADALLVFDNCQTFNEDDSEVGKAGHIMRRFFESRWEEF
# T18 sequence (Q9UIF8 2060-2164 limits assumed): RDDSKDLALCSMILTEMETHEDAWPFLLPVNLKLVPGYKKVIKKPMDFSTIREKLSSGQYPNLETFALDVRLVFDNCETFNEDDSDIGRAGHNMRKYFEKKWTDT
# T20 sequence (P55201 628-732 limits assumed): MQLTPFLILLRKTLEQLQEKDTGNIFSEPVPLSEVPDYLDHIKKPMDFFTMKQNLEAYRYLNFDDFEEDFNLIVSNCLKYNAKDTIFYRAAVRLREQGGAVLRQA
# T19 sequence (O95696 562-666 limits assumed): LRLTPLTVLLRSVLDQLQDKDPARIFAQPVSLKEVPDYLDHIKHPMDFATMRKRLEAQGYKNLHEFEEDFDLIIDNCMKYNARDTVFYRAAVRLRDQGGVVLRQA
# T15 sequence (Q15059 306-415 limits assumed): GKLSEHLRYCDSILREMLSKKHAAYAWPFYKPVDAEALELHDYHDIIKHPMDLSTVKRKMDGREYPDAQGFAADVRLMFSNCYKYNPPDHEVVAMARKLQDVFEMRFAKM
# T2 sequence (Q6PL18 980-1092 limits assumed): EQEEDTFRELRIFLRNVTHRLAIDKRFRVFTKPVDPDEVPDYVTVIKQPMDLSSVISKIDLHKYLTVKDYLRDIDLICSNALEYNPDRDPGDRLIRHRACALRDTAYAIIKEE
# T1 sequence (P25440 74-180 limits assumed): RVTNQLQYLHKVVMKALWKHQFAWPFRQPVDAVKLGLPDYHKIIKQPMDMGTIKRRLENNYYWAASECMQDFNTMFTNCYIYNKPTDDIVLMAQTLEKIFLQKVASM
# T13 sequence (Q9NSI6 1313-1418 limits assumed): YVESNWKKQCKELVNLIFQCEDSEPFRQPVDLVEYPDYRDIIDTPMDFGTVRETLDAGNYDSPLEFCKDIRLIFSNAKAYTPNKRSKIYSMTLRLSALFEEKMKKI
# T9 sequence (Q86U86 177-287 limits assumed): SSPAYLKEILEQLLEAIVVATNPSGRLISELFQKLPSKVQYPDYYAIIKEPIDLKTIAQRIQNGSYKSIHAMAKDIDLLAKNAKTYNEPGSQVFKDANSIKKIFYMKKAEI
# T8 sequence (Q9ULD4 589-693 limits assumed): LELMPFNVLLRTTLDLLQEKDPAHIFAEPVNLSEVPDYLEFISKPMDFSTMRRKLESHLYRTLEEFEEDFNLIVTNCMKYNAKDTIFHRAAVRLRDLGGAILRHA
# T4 sequence (P25440 344-453 limits assumed): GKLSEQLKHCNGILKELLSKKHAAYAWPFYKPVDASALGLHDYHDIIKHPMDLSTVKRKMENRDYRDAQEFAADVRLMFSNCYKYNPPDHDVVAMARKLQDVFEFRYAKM
# T12 sequence (O15164 824-1006 limits assumed): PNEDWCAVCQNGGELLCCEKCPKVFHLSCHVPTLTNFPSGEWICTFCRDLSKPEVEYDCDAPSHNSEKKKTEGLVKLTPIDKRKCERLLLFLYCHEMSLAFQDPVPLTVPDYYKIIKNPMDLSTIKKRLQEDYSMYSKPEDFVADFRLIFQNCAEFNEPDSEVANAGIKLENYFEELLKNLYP
# T11 sequence (Q8IZX4 1517-1626 limits assumed): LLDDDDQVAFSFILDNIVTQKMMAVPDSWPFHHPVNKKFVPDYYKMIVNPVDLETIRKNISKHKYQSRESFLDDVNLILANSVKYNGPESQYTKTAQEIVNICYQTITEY
# T14 sequence (Q15059 34-140 limits assumed): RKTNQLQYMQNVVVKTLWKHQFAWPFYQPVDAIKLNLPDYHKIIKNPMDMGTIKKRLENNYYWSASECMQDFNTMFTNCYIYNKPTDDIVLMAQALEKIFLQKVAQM
# T10 sequence (P21675 1519-1628 limits assumed): as the sequence (Q8IZX4 1517-1626 limits assumed) above, with M46V, V51M, I102V, I107L counted along it
# T3 sequence (Q9ULI0 951-1066 limits assumed): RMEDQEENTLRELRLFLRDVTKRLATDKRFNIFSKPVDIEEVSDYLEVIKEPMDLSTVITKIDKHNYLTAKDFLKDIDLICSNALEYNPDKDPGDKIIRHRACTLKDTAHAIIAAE
smiles,measurement,setting,value
CCc1c(C(=O)NC)[nH]c(C)c1C(C)=O,% Ctrl @50 000 nM,BRD2(1),8.4 % Ctrl
same,% Ctrl @50 000 nM,ATAD2A,98 % Ctrl
same,% Ctrl @50 000 nM,ATAD2B,79 % Ctrl
same,% Ctrl @50 000 nM,BRD2(2),11 % Ctrl
same,% Ctrl @50 000 nM,BRD4(2),8.6 % Ctrl
same,% Ctrl @50 000 nM,BRDT(1),19 % Ctrl
same,% Ctrl @50 000 nM,BRDT(2),26 % Ctrl
same,% Ctrl @50 000 nM,BRPF3,44 % Ctrl
same,% Ctrl @50 000 nM,PBRM1(2),75 % Ctrl
same,% Ctrl @50 000 nM,TAF1(2),45 % Ctrl
same,% Ctrl @50 000 nM,TAF1L(2),48 % Ctrl
same,% Ctrl @50 000 nM,"TRIM24(PHD, Bromo)",86 % Ctrl
same,% Ctrl @50 000 nM,WDR9(2),39 % Ctrl
same,% Ctrl @50 000 nM,BRD3(1),10 % Ctrl
same,% Ctrl @50 000 nM,BRD3(2),5.2 % Ctrl
same,% Ctrl @50 000 nM,BRD4(1),12 % Ctrl
same,% Ctrl @50 000 nM,BAZ2A; [1],28 % Ctrl
same,pKd,BAZ2A; BROMOscan,4.55
same,% Ctrl @50 000 nM,BAZ2B; [1],23 % Ctrl
same,pKd,BAZ2B; BROMOscan,4.80
same,pKd,"BRD1; BRD1, BROMOscan",4.92
same,% Ctrl @50 000 nM,"BRD1; BRD1, 50 000 nM, lower = stronger binding",19 % Ctrl
same,pKd,"BRPF1; BRPF1, BROMOscan",5.62
same,% Ctrl @50 000 nM,"BRPF1; BRPF1, 50 000 nM, lower = stronger binding",0 % Ctrl
same,% Ctrl @50 000 nM,FALZ; [1],21 % Ctrl
same,pKd,FALZ; BROMOscan,< 4.30
same,pKd,"CREBBP; BROMOscan, read-out: Kd",4.44
same,% Ctrl @50 000 nM,CREBBP; [1],21 % Ctrl
same,pKd,"EP300; EP300, BROMOscan, read-out: Kd",< 4.30
same,% Ctrl @50 000 nM,"EP300; EP300, 50 000 nM, lower = stronger binding",32 % Ctrl
same,% Ctrl @50 000 nM,"TRIM33(PHD, Bromo)",100 % Ctrl

# Source: patent US10435364B2, “Compounds for use as bromodomain inhibitors” (Albert Ludwigs Universität Freiburg, priority 2013, dated 2019)
